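Each compound was tested at five concentrations against cells in 96-well plates for 48 hours. TGI denotes the concentration required for complete inhibition of growth.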
Tests used:
Assay in all cases: growth of human tumour cells (NCI), 48 h
OVCAR-3 ovarian = test system: OVCAR-3 ovarian
SK-MEL-5 melanoma = test system: SK-MEL-5 melanoma
MDA-MB-435 = test system: MDA-MB-435
HOP-92 NSCLC = test system: HOP-92 NSCLC
SNB-75 CNS = test system: SNB-75 CNS
PC-3 prostate = test system: PC-3 prostate
T-47D breast = test system: T-47D breast
KM12 colon = test system: KM12 colon
OVCAR-5 ovarian = test system: OVCAR-5 ovarian
ACHN renal = test system: ACHN renal
UO-31 renal = test system: UO-31 renal
LOX IMVI melanoma = test system: LOX IMVI melanoma
U251 CNS = test system: U251 CNS
OVCAR-8 ovarian = test system: OVCAR-8 ovarian
A498 renal = test system: A498 renal
A549 NSCLC = test system: A549 NSCLC
MOLT-4 leukemia = test system: MOLT-4 leukemia
SK-MEL-28 melanoma = test system: SK-MEL-28 melanoma
SN12C renal = test system: SN12C renal
K-562 leukemia = test system: K-562 leukemia
RXF 393 renal = test system: RXF 393 renal
HT29 colon = test system: HT29 colon
SNB-19 CNS = test system: SNB-19 CNS
NCI-H226 lung = test system: NCI-H226 lung
OVCAR-4 ovarian = test system: OVCAR-4 ovarian
SF-295 CNS = test system: SF-295 CNS
CAKI-1 renal = test system: CAKI-1 renal
NCI-H23 lung = test system: NCI-H23 lung
MALME-3M melanoma = test system: MALME-3M melanoma
SK-MEL-2 melanoma = test system: SK-MEL-2 melanoma
IGROV1 ovarian = test system: IGROV1 ovarian
HCT-116 colon = test system: HCT-116 colon
SK-OV-3 ovarian = test system: SK-OV-3 ovarian
SR leukemia = test system: SR leukemia
MDA-N = test system: MDA-N
MCF7 breast = test system: MCF7 breast
NCI-H460 lung = test system: NCI-H460 lung
EKVX NSCLC = test system: EKVX NSCLC
BT-549 breast = test system: BT-549 breast
HL-60(TB) leukemia = test system: HL-60(TB) leukemia
DU-145 prostate = test system: DU-145 prostate
MDA-MB-231 breast = test system: MDA-MB-231 breast
HCC-2998 colon = test system: HCC-2998 colon
HCT-15 colon = test system: HCT-15 colon
NCI/ADR-RES ovarian = test system: NCI/ADR-RES ovarian
CCRF-CEM leukemia = test system: CCRF-CEM leukemia
M14 melanoma = test system: M14 melanoma
786-0 renal = test system: 786-0 renal
COLO 205 colon = test system: COLO 205 colon
SF-268 CNS = test system: SF-268 CNS
SF-539 CNS = test system: SF-539 CNS
NCI-H522 lung = test system: NCI-H522 lung
TK-10 renal = test system: TK-10 renal
SW-620 colon = test system: SW-620 colon
UACC-257 melanoma = test system: UACC-257 melanoma
HOP-62 NSCLC = test system: HOP-62 NSCLC
HS 578T breast = test system: HS 578T breast
RPMI-8226 leukemia = test system: RPMI-8226 leukemia
UACC-62 melanoma = test system: UACC-62 melanoma

## COc1cc2cc(C(=O)Nc3cc4n(n3)-c3ccccc3C4)[nH]c2c(OC)c1OC
OVCAR-3 ovarian
  TGI: 11.8 µM
SK-MEL-5 melanoma
  TGI: 5.23 µM
MDA-MB-435
  TGI: 5.28 µM
HOP-92 NSCLC
  TGI: 16.6 µM
SNB-75 CNS
  TGI: 13.9 µM
PC-3 prostate
  TGI: 10.4 µM
T-47D breast
  TGI: 2.39 µM
KM12 colon
  TGI: 7.83 µM
OVCAR-5 ovarian
  TGI: 17.8 µM
ACHN renal
  TGI: 17.6 µM
UO-31 renal
  TGI: 6.8 µM
LOX IMVI melanoma
  TGI: 12.7 µM
U251 CNS
  TGI: 22.7 µM
OVCAR-8 ovarian
  TGI: 3.78 µM
A498 renal
  TGI: 50 µM
A549 NSCLC
  TGI: 7.63 µM
MOLT-4 leukemia
  TGI: 2.2 µM
SK-MEL-28 melanoma
  TGI: 9.66 µM
SN12C renal
  TGI: 25.6 µM
K-562 leukemia
  TGI: 14.9 µM
RXF 393 renal
  TGI: 50 µM
HT29 colon
  TGI: 25.5 µM
SNB-19 CNS
  TGI: 27.6 µM
NCI-H226 lung
  TGI: 3.95 µM
OVCAR-4 ovarian
  TGI: 6.16 µM
SF-295 CNS
  TGI: 11.6 µM
CAKI-1 renal
  TGI: 6.3 µM
NCI-H23 lung
  TGI: 10.5 µM
MALME-3M melanoma
  TGI: 6.43 µM
SK-MEL-2 melanoma
  TGI: 8.39 µM
IGROV1 ovarian
  TGI: 9.79 µM
HCT-116 colon
  TGI: 9.65 µM
SK-OV-3 ovarian
  TGI: 19.4 µM
SR leukemia
  TGI: 11.5 µM
MDA-N
  TGI: 8.52 µM
MCF7 breast
  TGI: 14.1 µM
NCI-H460 lung
  TGI: 7.1 µM
EKVX NSCLC
  TGI: 11.5 µM
BT-549 breast
  TGI: 3.57 µM
HL-60(TB) leukemia
  TGI: 6.1 µM
DU-145 prostate
  TGI: 14.3 µM
MDA-MB-231 breast
  TGI: 19.3 µM
HCC-2998 colon
  TGI: 21 µM
HCT-15 colon
  TGI: 9.61 µM
NCI/ADR-RES ovarian
  TGI: 3.86 µM
CCRF-CEM leukemia
  TGI: 3.42 µM
M14 melanoma
  TGI: 6.86 µM
786-0 renal
  TGI: 17.8 µM
COLO 205 colon
  TGI: 9.45 µM
SF-268 CNS
  TGI: 15.1 µM
SF-539 CNS
  TGI: 17.8 µM
NCI-H522 lung
  TGI: 4.13 µM
TK-10 renal
  TGI: 9.27 µM
SW-620 colon
  TGI: 19.1 µM
UACC-257 melanoma
  TGI: 9.26 µM
HOP-62 NSCLC
  TGI: 6.43 µM
HS 578T breast
  TGI: 16.4 µM
RPMI-8226 leukemia
  TGI: 3.14 µM

## COc1ccc(C2=C(N)c3c(Cl)cccc3C2=O)cc1
OVCAR-3 ovarian
  TGI: > 100 µM
SK-MEL-5 melanoma
  TGI: > 100 µM
MDA-MB-435
  TGI: > 100 µM
HOP-92 NSCLC
  TGI: > 100 µM
SNB-75 CNS
  TGI: > 100 µM
PC-3 prostate
  TGI: > 100 µM
T-47D breast
  TGI: > 100 µM
KM12 colon
  TGI: > 100 µM
OVCAR-5 ovarian
  TGI: > 100 µM
ACHN renal
  TGI: > 100 µM
LOX IMVI melanoma
  TGI: > 100 µM
U251 CNS
  TGI: > 100 µM
OVCAR-8 ovarian
  TGI: > 100 µM
A498 renal
  TGI: > 100 µM
A549 NSCLC
  TGI: > 100 µM
MOLT-4 leukemia
  TGI: > 100 µM
SK-MEL-28 melanoma
  TGI: > 100 µM
SN12C renal
  TGI: > 100 µM
HT29 colon
  TGI: > 100 µM
SNB-19 CNS
  TGI: > 100 µM
NCI-H226 lung
  TGI: > 100 µM
OVCAR-4 ovarian
  TGI: > 100 µM
SF-295 CNS
  TGI: > 100 µM
CAKI-1 renal
  TGI: > 100 µM
NCI-H23 lung
  TGI: > 100 µM
MALME-3M melanoma
  TGI: > 100 µM
SK-MEL-2 melanoma
  TGI: > 100 µM
IGROV1 ovarian
  TGI: > 100 µM
HCT-116 colon
  TGI: > 100 µM
SK-OV-3 ovarian
  TGI: > 100 µM
MDA-N
  TGI: > 100 µM
MCF7 breast
  TGI: > 100 µM
NCI-H460 lung
  TGI: > 100 µM
EKVX NSCLC
  TGI: > 100 µM
BT-549 breast
  TGI: > 100 µM
HL-60(TB) leukemia
  TGI: > 100 µM
DU-145 prostate
  TGI: > 100 µM
MDA-MB-231 breast
  TGI: > 100 µM
HCC-2998 colon
  TGI: > 100 µM
HCT-15 colon
  TGI: > 100 µM
NCI/ADR-RES ovarian
  TGI: > 100 µM
CCRF-CEM leukemia
  TGI: > 100 µM
M14 melanoma
  TGI: > 100 µM
786-0 renal
  TGI: > 100 µM
UACC-62 melanoma
  TGI: > 100 µM
COLO 205 colon
  TGI: > 100 µM
SF-268 CNS
  TGI: > 100 µM
SF-539 CNS
  TGI: > 100 µM
NCI-H522 lung
  TGI: > 100 µM
SW-620 colon
  TGI: > 100 µM
UACC-257 melanoma
  TGI: > 100 µM
HOP-62 NSCLC
  TGI: > 100 µM
HS 578T breast
  TGI: > 100 µM
RPMI-8226 leukemia
  TGI: > 100 µM
